# Measurements reported in ChEMBL document CHEMBL4680194, “Synthesis and biological evaluation of 1,2,4-triazole derivatives as potential neuroprotectant against ischemic brain injury” (Eur J Med Chem, 2020).
# The source made the active and inactive calls. No cut-off for these calls is given here.
# Legend:
# [1] = Cmax in Sprague-Dawley rat at 20 mg/kg, po measured upto 24 hrs by LC-MS/MS analysis; type: ADME, organism-based; design: route oral, dose 20 mg/kg, time <=24; details: in vivo
# [2] = Cmax in Sprague-Dawley rat at 2 mg/kg, iv measured upto 24 hrs by LC-MS/MS analysis; type: ADME, organism-based; design: route intravenous, dose 2 mg/kg, time <=24; details: in vivo
# [3] = target: T1, Nuclear factor erythroid 2-related factor 2 (Rattus norvegicus) (UniProt O54968); test: Induction of Nrf2 nuclear translocation in rat PC-12 cells assessed as increase in nuclear Nrf2 level at 1.25 to 5 uM incubated for 24 hrs by Western blot analysis; type: cell-based; details: dose 1.25-5 µM
# T1 sequence (whole entry): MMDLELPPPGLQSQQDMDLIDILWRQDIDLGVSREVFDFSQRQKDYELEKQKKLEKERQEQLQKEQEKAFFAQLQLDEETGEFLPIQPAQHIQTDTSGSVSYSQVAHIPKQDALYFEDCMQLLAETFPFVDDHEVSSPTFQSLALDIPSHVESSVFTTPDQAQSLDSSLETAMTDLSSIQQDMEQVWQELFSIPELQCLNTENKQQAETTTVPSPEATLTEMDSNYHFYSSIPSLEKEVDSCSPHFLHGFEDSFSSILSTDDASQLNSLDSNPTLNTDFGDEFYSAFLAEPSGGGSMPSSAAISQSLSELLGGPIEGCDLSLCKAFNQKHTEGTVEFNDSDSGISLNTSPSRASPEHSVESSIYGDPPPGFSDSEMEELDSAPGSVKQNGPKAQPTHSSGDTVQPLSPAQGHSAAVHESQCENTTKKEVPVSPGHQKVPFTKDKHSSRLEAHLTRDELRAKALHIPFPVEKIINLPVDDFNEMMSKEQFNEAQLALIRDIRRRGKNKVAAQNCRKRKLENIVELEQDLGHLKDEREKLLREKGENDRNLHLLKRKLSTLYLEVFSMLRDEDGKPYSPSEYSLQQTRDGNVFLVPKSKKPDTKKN
# PC-12 [4] = test: Cytoprotective activity against H2O2-induced cell death in rat PC-12 cells assessed as increase in cell viability at 10 uM incubated for 1 hr followed by H2O2 stimulation and measured after 5 hrs by MTT assay; type: functional; details: time 6 hrs
# [5] = target: T1, Nuclear factor erythroid 2-related factor 2 (Rattus norvegicus); test: Induction of Nrf2 nuclear translocation in rat PC-12 cells assessed as SNP-induced GSH level at 5 uM incubated for 1 hr followed by SNP stimulation and measured after 24 hrs (reference value: 75.78 +/- 1.74 nM/mg); type: cell-based; details: time 25.0 hrs
# [6] = Toxicity in […] assessed as body weight at 400 mg/kg, ip measured on day 3 (reference value: 24.4 to 28.4 g); type: organism-based; details: in vivo, 72 h, time 3 day
# [7] = target: T1, Nuclear factor erythroid 2-related factor 2 (Rattus norvegicus); test: Induction of Nrf2 nuclear translocation in rat PC-12 cells assessed as H2O2-induced GSH level incubated for 1 hr followed by H2O2 stimulation and measured after 5 hrs; type: cell-based; details: dose 2.5-10 µM, time 6.0 hrs
# [8] = target: T1, Nuclear factor erythroid 2-related factor 2 (Rattus norvegicus); test: Induction of Nrf2 nuclear translocation in rat PC-12 cells assessed as H2O2-induced GSH level at 5 uM incubated for 1 hr followed by H2O2 stimulation and measured after 5 hrs (reference value: 65.52 +/- 1.44 nM/mg); type: cell-based; details: time 6.0 hrs
# [9] = Toxicity in […] assessed as behavior changes at 400 mg/kg, ip observed after 12 hrs; type: organism-based; details: in vivo
# [10] = Oral bioavailability in Sprague-Dawley rat at 20 mg/kg measured upto 24 hrs by LC-MS/MS analysis; type: ADME, organism-based; details: in vivo
# PC-12 [11] = test: Inhibition of H2O2-induced apoptosis in rat PC-12 cells assessed as reduction in condensed nuclei incubated for 1 hr followed by H2O2 stimulation and measured after 5 hrs by Hoechst 33258 staining based fluorescence microscopy; type: functional, cell-based; details: dose 2.5-10 µM, time 6.0 hrs
# [12] = target: T1, Nuclear factor erythroid 2-related factor 2 (Rattus norvegicus); test: Induction of Nrf2 nuclear translocation in rat PC-12 cells assessed as SNP-induced GSH-px level at 5 uM incubated for 1 hr followed by SNP stimulation and measured after 24 hrs (reference value: 37.70 +/- 2.88 mU/mg); type: cell-based; details: time 25.0 hrs
# [13] = target: T1, Nuclear factor erythroid 2-related factor 2 (Rattus norvegicus); test: Induction of Nrf2 nuclear translocation in rat PC-12 cells assessed as H2O2-induced GSH-px level incubated for 1 hr followed by H2O2 stimulation and measured after 5 hrs; type: cell-based; details: dose 2.5-10 µM, time 6.0 hrs
# PC-12 [14] = test: Inhibition of SNP-induced apoptosis in rat PC-12 cells assessed as effect on cell morphology incubated for 1 hr followed by SNP stimulation and measured after 24 hrs by Hoechst 33258 staining based fluorescence microscopy; type: functional; details: dose 2.5-10 µM, time 25.0 hrs
# [15] = Toxicity in […] assessed as organism death at 400 mg/kg, ip observed for 7 day; type: organism-based; details: in vivo
# [16] = Toxicity in […] assessed as body weight at 400 mg/kg, ip observed after immediately (reference value: 24.4 to 28.4 g); type: organism-based; details: in vivo
# Rattus norvegicus = test: Neuroprotective activity in Sprague-Dawley rat model of middle cerebral artery occlusion-induced ischemic injury assessed as infarction volume at 30 mg/kg, ip administered TID and measured after 6 hrs by TTC staining based assay (reference value: 28.67 +/- 2.90 %); type: functional
# [17] = target: T1, Nuclear factor erythroid 2-related factor 2 (Rattus norvegicus); test: Induction of Nrf2 nuclear translocation in rat PC-12 cells assessed as H2O2-induced GSH level at 10 uM incubated for 1 hr followed by H2O2 stimulation and measured after 5 hrs (reference value: 65.52 +/- 1.44 nM/mg); type: cell-based; details: time 6.0 hrs
# [18] = MRT in Sprague-Dawley rat at 20 mg/kg, po measured upto 24 hrs by LC-MS/MS analysis; type: ADME, organism-based; details: in vivo
# PC-12 [19] = test: Cytoprotective activity against H2O2-induced cell death in rat PC-12 cells assessed as increase in cell viability incubated for 1 hr followed by H2O2 stimulation and measured after 5 hrs by LDH assay; type: functional, cell-based; details: time 6.0 hrs
# PC-12 [20] = test: Antioxidant activity in rat PC-12 cells assessed as reduction in H2O2-induced ROS level incubated for 1 hr followed by H2O2 stimulation and measured after 5 hrs by DCFH-DA staining based fluorescence microscopy; type: functional, cell-based; details: dose 2.5-10 µM, time 6.0 hrs
# [21] = target: T1, Nuclear factor erythroid 2-related factor 2 (Rattus norvegicus); test: Induction of Nrf2 nuclear translocation in rat PC-12 cells assessed as H2O2-induced GSH-px level at 10 uM incubated for 1 hr followed by H2O2 stimulation and measured after 5 hrs (reference value: 45.92 +/- 3.64 mU/mg); type: cell-based; details: time 6.0 hrs
smiles,measurement,setting,value
COc1ccc(-c2nc(-c3ccccc3O)n(-c3ccc(S(N)(=O)=O)cc3)n2)c(O)c1,Cmax,[1],2030 ng/mL
same,Cmax,[2],2750 ng/mL
same,Activity,[3],Active
same,Activity,PC-12 [4],30%
same,Activity,[5],86.7 nM/mg
same,Activity,[6],24.5 g
same,Activity,[7],Dose-dependent effect
same,Activity,[8],72.5 nM/mg
same,Activity,[9],Non-Toxic
same,bioavailability,[10],60.8%
same,inhibition,PC-12 [11],Dose-dependent effect
same,Activity,[12],44.4 mU/mg
same,Activity,[13],Dose-dependent effect
same,inhibition,PC-12 [14],Dose-dependent effect
same,LD50 at 168 h,[15],400 mg/kg
same,Activity,[16],24.6 g
same,Activity,Rattus norvegicus,18.06%
same,Activity,[17],80.6 nM/mg
same,MRT,[18],6.32 h
same,Activity,PC-12 [19],Dose-dependent effect
same,inhibition,PC-12 [20],Dose-dependent effect
same,Activity,[21],77.9 mU/mg
